Results taken from patent publication US8629166B2, “5-cycloalkyl- or 5-heterocyclyl-nicotinamides” (Hoffmann-La Roche Inc., priority 2011, dated 2014).

Assays:
human CB1 receptor = target: T1, human CB1 receptor (Homo sapiens, UniProt P21554); assay: CB1 receptor affinity ([3H]-CP-55,940 displacement, HEK cell membranes); type: binding; conditions: displacement of [3H]-CP-55,940 at 10 μM
T1 construct: expressed in transfected cells; host or cells: human embryonic kidney (HEK) cells, Semliki Forest Virus system, membrane preparation
Method: (§1) CB1 and CB2 Receptor Affinity
(§2) The affinity of the compounds of the invention for cannabinoid receptors was determined using membrane preparations of human embryonic kidney (HEK) cells in which the human CB1 receptor is transiently transfected using a Semliki Forest Virus system in conjunction with [3H]-CP-55,940 as radioligand. After incubation of freshly prepared cell membrane preparation with the [^3H]-ligand, with or without addition of compounds of the invention, separation of bound and free ligand was performed by filtration over glass fiber filters. Radioactivity on the filter was measured by scintillation counting.
(§3) The ability of the compounds to displace the radioligand [^3H]-CP-55,940 was measured at a concentration of 10 μM and values provided as [% inhibition @ 10 μM] both for the CB1 and CB2 receptor assay, The lower % inhibition is, the lower the likelihood of side effects based on CB1 or CB2 receptor inhibition is.

human CB2 receptor = target: T2, human CB2 receptor (Homo sapiens, UniProt P34972); assay: CB2 receptor affinity ([3H]-CP-55,940 displacement, HEK cell membranes); type: binding; conditions: displacement of [3H]-CP-55,940 at 10 μM
T2 construct: expressed in transfected cells; host or cells: human embryonic kidney (HEK) cells, Semliki Forest Virus system, membrane preparation
Method: as §1
as §2, with “cannabinoid CB2” for “cannabinoid”, “CB2” for “CB1”, “[^3H]-CP-55,940” for “[3H]-CP-55,940”
as §3

ABCA1 protein = assay: Detection of upregulation of ABCA1 protein in cells (ApoA-I binding, high content image analysis); type: cell-based; conditions: THP-1 macrophage cells; for % increase of ABCA1 at 3 μM: compound at 3 μM, 24 hrs
Method: Detection of Upregulation of ABCA1 Protein in Cells
The ability of compounds of the invention to increase the level of ABCA1 protein is determined in replicate cultures of THP-1 macrophage cells in 96-well microplates. Cells are plated at an initial density of 100,000 cells/well in 100 μl medium and differentiated to adherent macrophages with the addition of PMA (100 nM) for 68 hrs in 10% fetal bovine serum, 3 μl/L of b-mercaptoethanol, RPMI-1640 medium. Then, cells are incubated with RPMI-1640 medium containing 1% FCS, 25 μg/ml acetylated LDL, for 24 hours at 37° C. Following incubation with acetylated LDL, cells are washed twice with 50 μl PBS and incubated with 100 μl of RPMI-1640 medium containing the compound of interest solubilized in DMSO for an additional 24 hrs. The final DMSO concentration in presence of cells is maintained at 0.5%. ApoA-I binding assay using High Content Image Analysis is initiated by replacing with fresh medium, RPMI without Phenol Red, 0.2% BSA containing AlexaFluor®647 labeled ApoA-I for 2 h/37° C./5% CO2. Then, cells are fixed with 4% Formaldehyde in PBS (15 min, RT). Following Nuclei are stained with Hoechst solution (3 μM PBS) and Cytoplasm with Cell Mask Blue (2 μg/ml PBS), 15 min, RT. Finally the stained cells are fixed with a second round of formaldehyde treatment. Fixed stained cells are washed and kept in PBS at 4° C. and can be read immediately until one month after preparation.
The Alexa Fluor 647-labeled Apolipoprotein A-I (20 nM) was prepared as follows: Human recombinant Apolipoprotein A-I (ApoA-I) was exchanged to a buffer of 0.02 M NaHCO3 at pH 8.2 on an NAP desalting column (GE Healthcare) and brought to a concentration to 40 μM (1.13 mg/ml) by adjustment with the same buffer. The ApoA-I was fluorescently labeled by incubation with Alexa Fluor carboxylic acid succimidyl ester (Alexa Fluor 647, Invitrogen A-20006) at a 2:1 molar ratio (Alexa to ApoA-I) for 1 h under shaking at RT. The remaining unconjugated label was removed by buffer exchange to 0.02M NaHCO3 at pH 8.2.
Imaging and data collection were performed on an OPERA confocal microplate imaging reader using a 20× water immersion objective and UV360 or 405 laser to identify the cell nuclei and a 635 laser to identify the fluorescent ApoA-I. Eight fields of view are captured per well. Image capture and analysis was performed with the Acapella software. Background fluorescence detected in control wells without ApoA-I was subtracted.
Using XLfit3 program (ID Business Solutions Ltd. UK), the model 205 for Dose Response One Site is used to calculate the EC50 values. […] Particularly, the compounds of the present invention have EC50 values in a range of 0.1 μM to 3 μm.

T2 sequence (P34972 whole entry): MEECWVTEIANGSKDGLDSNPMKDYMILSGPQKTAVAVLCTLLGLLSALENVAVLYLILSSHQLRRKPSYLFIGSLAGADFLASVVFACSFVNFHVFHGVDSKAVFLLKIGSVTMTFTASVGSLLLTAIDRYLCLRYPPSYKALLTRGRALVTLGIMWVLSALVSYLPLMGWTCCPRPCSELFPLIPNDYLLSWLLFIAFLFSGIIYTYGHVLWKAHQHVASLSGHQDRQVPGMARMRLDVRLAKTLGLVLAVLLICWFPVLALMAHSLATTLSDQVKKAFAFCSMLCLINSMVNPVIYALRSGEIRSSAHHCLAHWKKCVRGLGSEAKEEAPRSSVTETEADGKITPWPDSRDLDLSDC
T1 sequence (P21554 whole entry): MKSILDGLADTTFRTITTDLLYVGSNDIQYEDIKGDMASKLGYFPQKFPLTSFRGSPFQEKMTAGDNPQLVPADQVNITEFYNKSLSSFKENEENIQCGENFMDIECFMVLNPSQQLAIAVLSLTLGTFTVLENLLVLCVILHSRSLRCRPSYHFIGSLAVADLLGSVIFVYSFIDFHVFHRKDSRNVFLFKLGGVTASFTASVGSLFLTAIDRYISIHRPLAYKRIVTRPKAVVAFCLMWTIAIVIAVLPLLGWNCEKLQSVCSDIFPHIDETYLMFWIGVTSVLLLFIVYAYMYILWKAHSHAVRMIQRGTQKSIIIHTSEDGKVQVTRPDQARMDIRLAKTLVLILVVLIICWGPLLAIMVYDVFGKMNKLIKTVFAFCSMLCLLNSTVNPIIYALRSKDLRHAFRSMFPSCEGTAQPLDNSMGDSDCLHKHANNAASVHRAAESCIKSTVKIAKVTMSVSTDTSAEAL

| Structure (SMILES) | CB1 receptor affinity [% inhibition @ 10 μM] (human CB1 receptor) | CB2 receptor affinity [% inhibition @ 10 μM] (human CB2 receptor) | % increase of ABCA1 at 3 μM (ABCA1 protein) | EC50 (ABCA1 protein; ABCA1 protein increasing efficacy) |
| --- | --- | --- | --- | --- |
| O=C(Nc1ccnnc1)c1cnc(OCC(F)(F)F)c(C2CCCCC2)c1 [Example 20, 5-cyclohexyl-N-pyridazin-4-yl-6-(2,2,2-trifluoro-ethoxy)-nicotinamide] | 36 % inhibition | 6 % inhibition | >45% @ 3 μM |  |
| O=C(Nc1ccncn1)c1cnc(OCC(F)(F)F)c(C2CCCC2)c1 [Example 23, 5-cyclopentyl-N-pyrimidin-4-yl-6-(2,2,2-trifluoro-ethoxy)-nicotinamide] | 31 % inhibition | −3 % inhibition | >45% @ 3 μM |  |
| O=C(NCc1csc(C2CC2)n1)c1cnc(OCC(F)(F)F)c(C2CCCC2)c1 [Example 18, 5-cyclopentyl-N-(2-cyclopropyl-thiazol-4-ylmethyl)-6-(2,2,2-trifluoro-ethoxy)-nicotinamide] | 17 % inhibition | 14 % inhibition | >45% @ 3 μM |  |
| O=C(Nc1cnccn1)c1cnc(OCC(F)(F)F)c(C2CCCC2)c1 [Example 28, 5-cyclopentyl-N-pyrazin-2-yl-6-(2,2,2-trifluoro-ethoxy)-nicotinamide] | 12 % inhibition | 2 % inhibition | >45% @ 3 μM |  |
| O=C(Nc1cccnc1)c1cnc(OCC(F)(F)F)c(C2=CCCCC2)c1 [Example 1, 5-cyclohex-1-enyl-N-pyridin-3-yl-6-(2,2,2-trifluoro-ethoxy)-nicotinamide] | 33 % inhibition | 5 % inhibition |  | 510 nM |
| COc1cc(CNC(=O)c2cnc(OCC(F)(F)F)c(C3CCCC3)c2)on1 [Example 12, 5-cyclopentyl-N-(3-methoxy-isoxazol-5-ylmethyl)-6-(2,2,2-trifluoro-ethoxy)-nicotinamide] | 29 % inhibition | 12 % inhibition | >45% @ 3 μM |  |
| O=C(Nc1ccnnc1)c1cnc(OCC(F)(F)F)c(C2CCCC2)c1 [Example 26, 5-cyclopentyl-N-pyridazin-4-yl-6-(2,2,2-trifluoro-ethoxy)-nicotinamide] | 24 % inhibition | −2 % inhibition | >45% @ 3 μM |  |
| O=C(Nc1cccnc1)c1cnc(OCC(F)(F)F)c(C2=CCCC2)c1 [Example 7, 5-cyclopent-1-enyl-N-pyridin-3-yl-6-(2,2,2-trifluoro-ethoxy)-nicotinamide] | 11 % inhibition | 3 % inhibition | >45% @ 3 μM |  |
| N#Cc1ccc(NC(=O)c2cnc(OCC(F)(F)F)c(C3CCCC3)c2)cc1 [Example 25, N-(4-cyano-phenyl)-5-cyclopentyl-6-(2,2,2-trifluoro-ethoxy)-nicotinamide] | 27 % inhibition | 0 % inhibition | >45% @ 3 μM |  |
